Tests used:
AXL (h) kinase = AXL (h) kinase (Homo sapiens (Human), UniProt P30530); assay: AXL (h) kinase activity test (EZ Reader mobility shift, FLPeptide30); type: biochemical; settings: ATP 100 μM, AXL 1 nM
Protocol: The effect of the disclosed compounds as protein kinase inhibitors can be evaluated by the following experiments. The AXL (h) kinase activity of the compounds of the invention is tested by the following methods:
Reagents used in the experiment were AXL (Carna Bioscience, Cat No.: 08-107) and FLPeptide30 (PerkinElmer, Cat No.: 760430). The instruments involved were thermotank (Thermo Scientific), oscillator (QILINBEIER), EZ Reader (PerkinElmer, Cat No.: 122919), Non-contact stage pipetting system (Labcyte Inc., Cat No.: Echo 550), and non-contact nanoliter pipetting system (TECAN, Cat No.: EVO200).
Compound dilution: 1) Dissolve the compound in DMSO to the appropriate concentration; 2) Using TECAN EVO200 to dilute 10 concentrations in 384 microplates by three times gradient, the highest concentration is 1 mM; Echo550 was used to transfer 20 nL solution from the dilution plate to the test plate.
2) Add 15 μL solution 1 to each well of the test plate and incubate at room temperature for 30 minutes.
4) Add 5 μL solution 2 to start the reaction, and the final volume of each well is 20 μL.
5) Incubated at 25° C. for 90 min, and then added 75 μL stop solution (containing 0.5 M EDTA) to terminate the reaction.
6) The sample of each well was analyzed using EZ reader.
1) Based on the measured conversion rate (CR), the Remaining Activity (%) of the kinase was calculated according to the following function:
2) XLFit (Equation 201) software was used to fit IC50.
The above methods can be used to obtain the inhibitory IC50 and/or inhibitory constant Ki.

Ba/F3 AXL cells = assay: Cell activity test: growth inhibition of Ba/F3 AXL cell line (CTG, 72 h); type: cell-based; settings: Mus musculus, BaF3
Protocol: This experiment was conducted by detecting the inhibitory effect of compounds on the growth of Ba/F3 AXL cell line and Ba/F3 parental cell line. Cells in logarithmic growth stage were harvested and counted by platelet counter. Trypan blue rejection method was used to detect cell viability to ensure that the cell viability was above 90%. Adjust cell concentration; 90 μL cell suspension was added to 96-well plates, respectively; Cells in 96-well plates were cultured overnight at 37° C., 5% CO2 and 95% humidity. A 10-fold drug solution was prepared, with the highest concentration of 10 μM, and a total of 9 concentrations were diluted at 3.16 times the ratio. 10 μL drug solution was added to each well of the 96-well plate inoculated with cells, and three wells were set for each drug concentration; 96-well plates were incubated at 37° C., 5% CO2 and 95% humidity for 72 h, and CTG analysis was performed. Thaw the CTG reagent and balance the cell plates to room temperature for 30 minutes. Add the same volume of CTG solution to each well and vibrate on a fixed-rail shaker for 5 minutes to crack the cells. Place the cell plates at room temperature for 20 minutes to stabilize the cold light signal and read the cold light value. The GraphPad Prism 5.0 software was used to analyze the data, and the nonlinear S-curve regression was used to fit the data to obtain the dose-effect curve, and the IC50 value was calculated accordingly. Cell survival rate (%)=(Lum drug to be tested −Lum culture medium control)/(Lum cell control−Lum culture medium control)×100%.

CYP2D6 = CYP2D6 (Homo sapiens (Human), UniProt P10635); assay: Inhibition of human liver microsomes CYP450, 2D6; type: in vitro ADME; settings: compounds 10 μM (positive control: concentration not given)
Chain of CYP2D6 (P10635 whole entry): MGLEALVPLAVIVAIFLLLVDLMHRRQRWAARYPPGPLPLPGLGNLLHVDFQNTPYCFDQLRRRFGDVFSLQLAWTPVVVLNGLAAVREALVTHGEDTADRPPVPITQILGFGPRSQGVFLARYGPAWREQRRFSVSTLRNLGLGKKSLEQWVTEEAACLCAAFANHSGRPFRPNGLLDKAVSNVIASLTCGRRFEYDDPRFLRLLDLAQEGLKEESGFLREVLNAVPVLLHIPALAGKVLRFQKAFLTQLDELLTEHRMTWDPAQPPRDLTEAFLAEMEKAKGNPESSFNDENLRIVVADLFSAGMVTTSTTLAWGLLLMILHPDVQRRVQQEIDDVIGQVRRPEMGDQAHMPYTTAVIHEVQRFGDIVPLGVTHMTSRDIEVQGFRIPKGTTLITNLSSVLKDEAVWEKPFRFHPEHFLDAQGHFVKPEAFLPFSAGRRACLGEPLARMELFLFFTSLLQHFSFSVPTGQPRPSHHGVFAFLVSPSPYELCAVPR

CYP3A4/5 = assay: Inhibition of human liver microsomes CYP450, 3A4/5; type: in vitro ADME; settings: compounds 10 μM (positive control: concentration not given)
CYP1A2 = CYP1A2 (Homo sapiens (Human), UniProt P05177); settings: microsomes, 10 µM
Chain of CYP1A2 (P05177 whole entry): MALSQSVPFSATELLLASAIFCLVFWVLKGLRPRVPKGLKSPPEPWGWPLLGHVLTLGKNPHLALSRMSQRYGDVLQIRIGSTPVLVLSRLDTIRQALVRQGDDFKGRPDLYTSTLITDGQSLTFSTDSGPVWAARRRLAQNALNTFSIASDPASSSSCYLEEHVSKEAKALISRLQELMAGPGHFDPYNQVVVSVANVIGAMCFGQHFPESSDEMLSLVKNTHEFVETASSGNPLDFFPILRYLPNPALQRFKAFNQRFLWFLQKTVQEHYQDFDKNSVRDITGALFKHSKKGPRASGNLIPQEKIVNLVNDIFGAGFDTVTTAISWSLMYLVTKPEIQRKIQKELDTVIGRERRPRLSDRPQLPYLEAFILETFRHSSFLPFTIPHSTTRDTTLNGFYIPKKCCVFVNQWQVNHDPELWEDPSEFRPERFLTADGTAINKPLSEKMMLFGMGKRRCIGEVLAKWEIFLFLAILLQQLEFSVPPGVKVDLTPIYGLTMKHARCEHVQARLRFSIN

CYP3A4 [1] = molecular target: T1, CYP3A4 (Homo sapiens (Human), UniProt P08684); settings: hepatocytes, 2 days, 10 μM
Protocol: (§1) Cryopreservation of human primary hepatocytes was resuscitated in medium after take out from liquid nitrogen. […] Plates were incubated at 37° C. and 5% CO2 for 4-6 hours to confirm the formation of monolayer cells attached to the wall. Then the adherent culture medium was changed into hepatocyte culture medium and the culture was continued overnight.
After the test compounds and positive control inducers were co-incubated with cells, the incubation medium was removed. […] After the samples were extracted and processed, the generation of metabolites and the kinase activities of CYP1A2, 2B6 and 3A4 was quantitatively detected by LC-MS/MS, respectively.
The induction of test substance on each subenzyme was determined by detecting the generation rate of metabolites of CYP450 subenzyme substrates. The relative activity of each subenzyme was expressed as a percentage of the relative blank control, and the data were calculated according to the following formula:
Fold of induction=sample subenzyme activity/blank subenzyme activity
Relative positive control activity (PC %)=(Fold of induction of sample group—Fold of induction of blank group)/(Fold of induction of positive control group—Fold of induction of blank group)×100

CYP3A4 [2] = molecular target: T1, CYP3A4; settings: hepatocytes, 2 days, 10 μM; remark: listed apart in the source
Protocol: as §1
After the test compound and positive control inducer were co-incubated with cells, the medium was removed and mercaptoethanol was added for cell lysis. Total RNA in cells was extracted with RNA extraction kit, and then transcribed into cDNA with cDNA reverse transcription kit. The 10 μL cDNA template was taken and analyzed on the fluorescence quantitative PCR instrument to obtain the Ct value.
The gene expression data were corrected by internal reference 18S, and the relative expression differences were determined by the method of ΔΔCt commonly used in fluorescence quantitative PCR.
The ΔCt, ΔΔCt and relative expression difference values of the target genes were calculated according to the following formula:
ΔCt=Ct value of target gene−Ct value of internal reference 18S
ΔΔCt=ΔCt of experimental group or positive control group−ΔCt of blank control group
Relative expression difference (fold of induction)=2−ΔΔ^Ct

Chain of AXL (h) kinase (P30530 473-894): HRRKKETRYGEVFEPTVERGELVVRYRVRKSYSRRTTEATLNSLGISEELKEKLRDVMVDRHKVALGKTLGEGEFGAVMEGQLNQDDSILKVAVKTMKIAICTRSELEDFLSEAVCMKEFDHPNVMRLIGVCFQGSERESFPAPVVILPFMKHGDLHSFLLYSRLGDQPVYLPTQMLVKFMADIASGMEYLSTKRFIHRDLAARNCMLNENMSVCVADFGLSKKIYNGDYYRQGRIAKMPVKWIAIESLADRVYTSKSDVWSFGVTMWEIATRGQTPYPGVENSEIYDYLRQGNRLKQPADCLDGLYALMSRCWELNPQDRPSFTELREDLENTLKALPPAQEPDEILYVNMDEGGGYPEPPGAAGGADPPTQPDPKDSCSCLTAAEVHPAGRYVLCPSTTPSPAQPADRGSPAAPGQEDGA

| IC50 (AXL (h) kinase) | IC50 (Ba/F3 AXL cells) | Inhibitory rate (%) 2D6 (CYP2D6) | Inhibitory rate (%) 3A4/5 (CYP3A4/5) | Inhibitory rate (%) 1A2 (CYP1A2) | Enzymatic activity CYP3A4 Fold of induction (CYP3A4 [1]) | Gene expression CYP3A4 Fold of induction (CYP3A4 [2]) | SMILES |
| --- | --- | --- | --- | --- | --- | --- | --- |
| 5 to 50 nM | < 5 nM | No inhibition | – | – | – | – | CC(C)C(=O)N1CCC(c2cc(-c3ccc(NC(=O)c4c5n(n(-c6ccccc6)c4=O)CCOC5)cc3F)c3c(N)ncnn23)CC1 [example 8, N-(4-(4-amino-7-(1-isobutyrylpiperidin-4-yl)pyrrolo[2,1-f][1,2,4]triazin-5-yl)-3-fluorophenyl)-2-oxo-1-phenyl-2,4,6,7-tetrahydro-1H-pyrazolo[5,1-c][1,4]oxazine-3-carboxamide] |
| – | < 5 nM | No inhibition | No inhibition | – | – | – | CC(C)C(=O)N1CCC(c2cc(-c3ccc(NC(=O)c4c5n(n(-c6ccccc6)c4=O)CCCC5)nc3)c3c(N)ncnn23)CC1 [example 11, N-(5-(4-amino-7-(1-isobutyrylpiperidin-4-yl)pyrrolo[2,1-f][1,2,4]triazin-5-yl)pyridin-2-yl)-2-oxo-1-phenyl-1,2,4,5,6,7-hexahydropyrazolo[1,5-a]pyridine-3-carboxamide] |
| – | < 5 nM | No inhibition | No inhibition | No inhibition | – | – | Nc1ncnn2c(C3CCC(O)CC3)cc(-c3ccc(NC(=O)c4c5n(n(-c6ccccc6)c4=O)CCCC5)nc3)c12 (stereo not shown) [example 21, N-(5-(4-amino-7-(4-hydroxycyclohexyl)pyrrolo[2,1-f][1,2,4]triazin-5-yl)pyridin-2-yl)-2-oxo-1-phenyl-1,2,4,5,6,7-hexahydropyrazolo[1,5-a]pyridine-3-carboxamide] |
| 5 to 50 nM | < 5 nM | – | No inhibition | – | 1.02 | 1.31 | Nc1ncnn2c1c(-c1ccc(NC(=O)c3c4n(n(-c5ccccc5)c3=O)CCOC4)cc1F)cc2[C@H]1CC[C@H](O)CC1 [example 22, N-(4-(4-amino-7-((1r,4r)-4-hydroxycyclohexyl)pyrrolo[2,1-f][1,2,4]triazin-5-yl)-3-fluorophenyl)-2-oxo-1-phenyl-2,4,6,7-tetrahydro-1H-pyrazolo[5,1-c][1,4]oxazine-3-carboxamide] |
| < 5 nM | < 5 nM | – | No inhibition | – | 0.836 | 1.58 | Nc1ncnn2c1c(-c1ccc(NC(=O)c3c4n(n(-c5ccccn5)c3=O)CCCC4)cc1F)cc2[C@H]1CC[C@H](O)CC1 [example 30, N-(4-(4-amino-7-((1r,4r)-4-hydroxycyclohexyl)pyrrolo[2,1-f][1,2,4]triazin-5-yl)-3-fluorophenyl)-2-oxo-1-(pyridin-2-yl)-1,2,4,5,6,7-hexahydropyrazolo[1,5-a]pyridine-3-carboxamide] |
| 5 to 50 nM | < 5 nM | – | No inhibition | – | 0.913 | 0.944 | Nc1ncnn2c1c(-c1ccc(NC(=O)c3c4n(n(-c5ccccn5)c3=O)CCOC4)cc1F)cc2[C@H]1CC[C@H](O)CC1 [example 31, N-(4-(4-amino-7-((1r,4r)-4-hydroxycyclohexyl)pyrrolo[2,1-f][1,2,4]triazin-5-yl)-3-fluorophenyl)-2-oxo-1-(pyridin-2-yl)-2,4,6,7-tetrahydro-1H-pyrazolo[5,1-c][1,4]oxazine-3-carboxamide] |
